Assay [1] deals with HRP. The assay is described as follows: Effect of detergents and polymers on chemiluminescent signal from xanthene substrate with HRP. It is filed as biochemical, horseradish. To be noted: H2O2, no HRP, 19 minute incubation, citrate buffer pH 7.0. The procedure:
(§1) Detergent was added to the buffer solution to increase the solubility of the assay components. The use of polymeric quaternary amines, neutral detergents and cationic detergents was compared using polyvinylbenzyltributylammonium chloride (Sapphire II, Tropix), Tween-20 (Sigma) and […] (CTAB, Sigma). Luminescence was measured in white opaque microplate wells using a Dynatech ML3000 luminometer. First, background signal was measured after the addition of hydrogen peroxide (10 μL of 3.5 mM stock solution) to 0.12 mL of 1.17 mM xanthene substrate (14) in 0.1 M citrate buffer pH 7.0 containing, 0.42 mg/mL hydroxypropylmethylcellulose and 4-iodophenol (iodophenol concentration was 71.4 μg/mL for the Sapphire II and Tween-20 solutions and 178.6 μg/mL for the CTAB solution) after a 19 minute incubation. HRP, 10 μL containing 5 fmol, was added to each well and the chemiluminescence was measured after a 19 min incubation.

Assay [2] has as its target T1, HRP (Armoracia rusticana, UniProt P00433).
T1 sequence (P00433 31-338 limits assumed): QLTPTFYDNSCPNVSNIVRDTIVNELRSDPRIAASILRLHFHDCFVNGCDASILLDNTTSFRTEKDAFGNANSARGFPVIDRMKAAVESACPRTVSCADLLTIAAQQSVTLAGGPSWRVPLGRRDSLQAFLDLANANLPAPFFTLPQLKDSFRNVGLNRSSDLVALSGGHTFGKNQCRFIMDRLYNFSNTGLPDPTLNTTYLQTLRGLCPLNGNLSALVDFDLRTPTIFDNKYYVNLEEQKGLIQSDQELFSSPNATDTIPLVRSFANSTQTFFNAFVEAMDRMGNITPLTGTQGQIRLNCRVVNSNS
Described as above. It is filed as biochemical, horseradish. The following applies: 5 fmol HRP; for Signal + HRP: 19 min incubation. The procedure:
as §1

Assay [3] concerns the target T2, horseradish peroxidase (HRP, Type VIA) (Armoracia rusticana, UniProt P00433).
T2 sequence (P00433 31-338 limits assumed): T1 sequence (P00433 31-338 limits assumed)
Put plainly: Comparison of Xanthene substrate (14) and Enhanced Chemiluminescence (ECL), HRP dilution series. It is filed as biochemical. To be noted: for RLU: Xanthene substrate with 4-phenylphenol, Emerald II, read after 40 minutes; for S/N: Xanthene substrate, 40 minutes. The procedure: The following conditions were used for the comparison of ECL(a commercially available optimized reagent containing Luminol-an amino-substituted cyclic acylhydrazide) and Xanthene substrate (14). ECL reagents were obtained from Amersham and were used as recommended by the manufacturer. Aliquots of horseradish peroxidase (HRP, Type VIA), 10 μL, containing 0,0.5, 5.0, 50.0, 500.0 and 5000.0 attomoles HRP were then added to 0.13 mL of each reagent formulation. To evaluate Xanthene substrate, hydrogen peroxide (10 μL of a 3.5 mM stock) was added to 10 μL of each HRP dilution and the reaction was initiated by addition of a solution of 0.12 mL of 1.17 mM Xanthene substrate in 0.1 M citrate buffer pH 7.0 containing 1.22 mM 4-phenylphenol, 0.42 mg/mL hydroxypropylmethylcellulose and 0.167 mg/mL Emerald II. The chemiluminescent signal was measured in a Dynatech ML3000 luminometer after 1 minute for ECL and 40 minutes for Xanthene substrate.

The mark [4] stands for this setting: Tween-20, 4-iodophenol 71.4 μg/mL.

Data on one molecule can be found in patent publication US6162610A, “Xanthan-ester and acridan substrates for horseradish peroxidase” (Tropix, Inc., priority 1998, dated 2000).

For the molecule `O=C(Oc1ccccc1)C1c2ccccc2Oc2cc(O)ccc21` (stereo not shown) [compound 14, 3-Hydroxy-9H-9-xanthene-carboxylic acid, phenyl ester], the Background is listed as 2.45 in the assay on HRP [1] (CTAB, 4-iodophenol 178.6 μg/mL); 14.83 with HRP [1] (Sapphire II (polyvinylbenzyltributylammonium chloride), 4-iodophenol 71.4 μg/mL); 0.0242 with HRP [1] (setting [4]). The S/N on HRP [2] (CTAB) is 1.5; on HRP [2] (Sapphire II), 15.4; at HRP [2] (Tween-20), 1.8; in assay [3] (HRP 0.5 amol), 1.11; in assay [3] (HRP 5 amol), 1.37; in assay [3] (HRP 50 amol) it was 4.95. The S/N in assay [3] (HRP 500 amol) is reported as 27.70; in assay [3] (HRP 5000 amol), 58.06. For the same molecule, the “Signal + HRP” value turned out to be 3.78 at HRP [2] (CTAB, 4-iodophenol 178.6 μg/mL); 229.05 on HRP [2] (Sapphire II, 4-iodophenol 71.4 μg/mL); 0.0439 at HRP [2] (setting [4]). Besides, the RLU in assay [3] (HRP 0.5 amol) was determined as 14.12 RLU; in assay [3] (HRP 5 amol), 17.52 RLU; in assay [3] (HRP 50 amol), 63.12 RLU; in assay [3] (HRP 500 amol), 353.31 RLU; in assay [3] (HRP 5000 amol), 740.51 RLU.
